System: LRRK2^G2019S, PINK1 null and SNCA^A53T flies
Test: Adult fly climbing ability (negative geotaxis)
Type: in vivo
Conditions: 2.5 μM in food, two models (LRRK2 and PINK1)
Method: FIG. 4A-FIG. 4I. Miro1 Reducer Rescues PD-Relevant Phenotypes in Flies. For all panels, when Miro1 Reducer was not added, the same volume of the solvent, DMSO, was supplied in fly food. Drug administration (2.5 μM) was started from day 2. (FIG. 4A-FIG. 4C) Survival curves of LRRK2^G2019S (FIG. 4A), PINK1^B9 (imprecise excision, null) and PINK1^RV (the precise excision control for PINK1^B9) (FIG. 4B), and SNCA^A53T flies (FIG. 4C). n=58-150. (FIG. 4D) Dopaminergic (DA) neurons in the PPM1/2 clusters of 22-day old flies were immunostained with anti-TH. (FIG. 4D-FIG. 4F) Quantification of the DA neuron number in the PPL1 or PPM1/2 cluster (total number divided by 2 for each brain). (FIG. 4D) LRRK2^G2019S. n=6-8 brains. […]
Fly climbing (negative geotaxis) ability was evaluated as previously described. Briefly, adult flies were gently tapped to the base of a modified 25 ml climbing tube and their climbing progress was recorded after 45 sec. Three populations of flies were assessed, and for each population, flies were examined 3 times per experiment. The recorded values were used to calculate Average Performance Index (PI). […] If the fly flew away, it was recorded as “1”, and if it was unable to fly, it was recorded as “0”. Wing posture was assessed by viewing each fly through a vial under a dissecting microscope. […] A normal wing posture or thorax (Course et al., 2018) was scored as “1”, otherwise “0”. […]

In the case of `O=C(Nc1ccc(Nc2cc(-n3ccnc3)ncn2)cc1)Nc1cccc(F)c1` [Miro1 Reducer], the “locomotor decline (climbing ability)” value is reported as “significantly rescued”.
